Data: patent US20040097467A1 (priority 2002, published 2004)
Where two headings read alike, the source gives them in different places. Marks after values point to notes of the source that are not given here.

How the values were obtained:
[1] = system: Hearts of Male JCR: LA-cp Rats; assay: Parameters for Langendorf-perfused hearts: coronary flow, reactive hyperemia, bradykinin response; assay type: in vivo, rat; details: hearts of treated cp/cp rats; mean +/− SEM, 10 rats
Description: Samples were taken from Langendorf-perfused hearts of JCR:LA-cp rats, control and arginine-treated.
(§1) The JCR:LA-cp rat is known to spontaneously develop the range of dysfunction and pathophysiology associated with Metabolic Syndrome in humans, e.g., obesity, profound insulin resistance, atherosclerosis with enhanced vascular contractility, and reduced vascular relaxation. In addition, obese male rats spontaneously develop ischemic lesions of the heart and are prone to stress-induced myocardial infarcts that can be fatal. Insulin resistance develops rapidly in young rats between the ages of 4 and 7 weeks and is highly correlated with the cardiovascular disease. […] Consistent with this observation is the presence of glomerular sclerosis in the older rats.
(§2) Male JCR: LA-cp rats are maintained on a reversed light cycle at 3 or 7 weeks of age and acclimatized over a 1-week period. This allows metabolic studies to be conducted under subdued light, during the active (dark) phase of their diurnal cycle.
(§3) The rats are divided into four groups and receive one of the three aforementioned feed concentrations or unsupplemented feed. The dosage is maintained on either a mg/kg body weight basis, in which case the diet is formulated on a weekly basis to ensure each rat receives the intended dose on a mg/kg basis, or the specified concentration in the feed. Food consumption and body weights are measured twice weekly.
(§4) The following parameters are measured: Food intake and body weights, ulin response (through a meal tolerance test), plasma total lipid profile, ratio n to creatinine, plasma levels of leptin, C-reactive protein and tumor necrosis TNFα), vascular function studies on aortic rings (contractility/relaxation), levels and activity of peroxisome proliferator-activated receptors (PPARs), osition of plasma cholesterol esters, liver, pancreas, muscle and adipose phatidylinositol-3 (PI-3) Kinase Signaling. Histological analysis are obtained sclerosis; islet morphometry; liver-hepatic damage and lipid content; and al electron microscopy for lipid).

normal rodents = details: 1% added to normal diet (1.8% L-Arg content); cited from earlier work
[2] = system: Aortic Rings of Male JCR: LA-cp Rats; assay: Contractile response of aortic rings to phenylephrine; assay type: in vivo, rat; details: for Slope: logistic curve fit, phenylephrine contraction, treated cp/cp rats; for Maximum contraction: phenylephrine, aortic rings from treated cp/cp rats, mean +/− SEM
Description: as §1, §2, §3
(§5) At 13 weeks of age, rats in the fed state are sacrificed under anesthesia with halothane in oxygen, and the following tissues are removed for processing as described below:
(§6) 1. Thoracic aorta for vascular function studies;
as §4

[3] = system: Aortic Rings of JCR:LA-cp rats; assay: Relaxant response of aortic rings to acetylcholine; assay type: in vivo, rat; details: treated cp/cp rats; for Maximum Relaxation: acetylcholine, rings pre-contracted with phenylephrine; for Slope: logistic curve fit, acetylcholine relaxation
Description: as §1, §2, §3, §5, §6, §4

JCR:LA-cp rat = system: JCR:LA-cp rat
Description: as §1, §2, §3
At 12 weeks of age, rats fast over the light (non-active) phase. A fasting blood sample is obtained from the tail and a standardized meal tolerance test (MTT) is performed. Following a 2-day recovery period, the rats are placed in a metabolism cage for 24 hours for the collection of urine.
as §5, §4

[4] = human volunteer, 8 g/l solution, three one-cup servings daily for three days, third-day 24-hour urine
rabbits = details: injection or ingestion; cited from earlier work
postmenopausal women = details: injection, 50 mg twice weekly, 14 months; cited from earlier work
[5] = system: subject at risk for bone loss; details: 500 mg total per day
overweight subject = details: 500 mg total per day, after several weeks
ovariectomized rats = details: oral; cited from earlier work
[6] = treatment begun at 4 weeks of age, at 12 weeks, vs control group

What does the source list for Cl.N=C(N)NCCC[C@H](N)C(=O)O [arginine HCl, reference compound]?
Bradykinin response Maximum response relative flow [1]: 1.48 +/− 0.55; Coronary flow [1]: 10.5 ± 0.3 mL/min; Reactive hyperemia [1]: 170 +/− 11** %; thymic weight (normal rodents): increased; Slope [2]: −1.03 +/− 0.14; Maximum contraction [2]: 1.84 ± 0.07 g; Maximum Relaxation [3]: 90.4 +/− 3.5%; Slope [3]: −0.673 +/− 0.093

With N=C(N)NCCC[C@H](N)C(=O)O.O[Si](O)(O)O [arginine silicate] as the compound, how does the “Bradykinin response Maximum response relative flow” value [1] read?
Its value is 1.95 +/− 0.40.

And the Coronary flow [1]?
The Coronary flow was 10.8 ± 0.4 mL/min.

What about the Reactive hyperemia [1] of the same compound?
Its Reactive hyperemia is 186 +/− 25.3* %.

What about the “bradykinin response (FIG. 1)” value (JCR:LA-cp rat; coronary blood flow, FIG. 1) of the same compound?
Its value is “improved”.

What about the “metabolic syndrome and cardiovascular disease (CVD) symptoms” value (JCR:LA-cp rat; dietary supplementation, compared to controls) of the same compound?
Its value is “reduced”.

And the “increases in serum insulin concentration” value (JCR:LA-cp rat; [6])?
The value was “reduced”.

And the “increases in urinary albumin excretion” value (JCR:LA-cp rat; [6])?
Its value is “reduced”.

And the body weight (JCR:LA-cp rat; vs control animals)?
The body weight was “reduction”.

And the “coronary risk lipids and lipoprotein concentrations” value (JCR:LA-cp rat; vs control animals)?
Its value is “reduction”.

What about the endothelial function (JCR:LA-cp rat; vs control animals) of the same compound?
The endothelial function was “improved”.

And the “gene expression and PPAR (α, γ) activity” value (JCR:LA-cp rat; vs control animals)?
The value was “enhanced”.

What about the glomerular sclerosis (JCR:LA-cp rat; vs control animals) of the same compound?
Its glomerular sclerosis is “decreased”.

What about the inflammatory markers (JCR:LA-cp rat; vs control animals) of the same compound?
The inflammatory markers was “decreased levels”.

What about the insulin resistance (JCR:LA-cp rat; vs control animals) of the same compound?
Its insulin resistance is “reduction”.

And the insulin signaling pathway (JCR:LA-cp rat; vs control animals)?
Its insulin signaling pathway is “enhanced”.

And the ischemic lesions (JCR:LA-cp rat; vs control animals)?
Its ischemic lesions is “reduced”.

And the islet cell hyperplasia (JCR:LA-cp rat; vs control animals)?
Its islet cell hyperplasia is “lower levels”.

And the sensitivity to insulin (JCR:LA-cp rat; vs control animals)?
Its sensitivity to insulin is “greater”.

And the “stress induced myocardial infarct” value (JCR:LA-cp rat; vs control animals)?
The value was “reduced”.

And the “structural remodeling (e.g., enlargement of the heart)” value (JCR:LA-cp rat; vs control animals)?
The value was “reduced”.

What about the tolerance to glucose (JCR:LA-cp rat; vs control animals) of the same compound?
Its tolerance to glucose is “greater”.

What about the vascular contractility (JCR:LA-cp rat; vs control animals) of the same compound?
The vascular contractility was “decreased”.

What about the vascular relaxation (JCR:LA-cp rat; vs control animals) of the same compound?
Its vascular relaxation is “increased”.

What about the “urinary silicon output vs baseline” value [4] of the same compound?
The value was “increased more than tenfold”.

What about the Slope [2] of the same compound?
The Slope was −1.01 +/− 0.17.

What about the Maximum contraction [2] of the same compound?
The Maximum contraction was 1.44 ± 0.07 g.

What about the “Maximum Relaxation” value [3] of the same compound?
The value was 97.1 +/− 4.0%.

What about the Slope [3] of the same compound?
Its Slope is −0.729 +/− 0.105.

And the “level of silica (% SiO2)” value (aqueous solution 0.5 g/l)?
The value was 17.5%.

And the “level of silica (% SiO2)” value (aqueous solution 10 g/l, 1 hour)?
The value was 11.8%.

And the “level of silica (% SiO2)” value (aqueous solution 10 g/l, 2 hours)?
The value was 10.8%.

And the “level of silica (% SiO2)” value (aqueous solution 10 g/l, 24 hours)?
The value was 9.2%.

And the “level of silica (% SiO2)” value (aqueous solution 10 g/l, time 0)?
The value was 17.5%.

For NCCCC[C@H](N)C(=O)O.O[Si](O)(O)O [lysine silicate], which “intimal thickening and fragmentation of arterial elastic fibers” value (rabbits) is on record?
The value was “prevented”.

For C[Si](O)(O)O [monomethyltrisilanol], which “increase of femoral density (average)” value (postmenopausal women) is on record?
The value was 4.7%.

And the “intimal thickening and fragmentation of arterial elastic fibers” value (rabbits)?
Its value is “prevented”.

For arginine silicate, which bone mineral density ([5]; after several months) is on record?
Its bone mineral density is “optimal level of bone density”.

What about the “serum N-telopeptide of collagen type I and osteocalcin (markers of bone resorption and formation)” value ([5]; after several weeks) of the same compound?
The value was “returned to their normal ranges”.

What about the “blood lipid concentrations (cholesterol and triglycerides)” value (overweight subject) of the same compound?
The value was “reduced”.

And the glucose metabolism (overweight subject)?
Its glucose metabolism is “normalized”.

Which bone formation rate (ovariectomized rats) does the source give for orthosilicic acid here?
The bone formation rate was “increased”.

What about the bone turnover (ovariectomized rats) of the same compound?
The bone turnover was “slowed”.
